This note sets out measurements from patent US8053452B2, “Substituted isoxazoline or enone oxime compound, and pest control agent” (Nissan Chemical Industries, Ltd., priority 2007, dated 2011).

One data set has as its system Plutella xylostella. In words: Mortality test for Plutella xylostella. Format: in vivo. The following applies: 144 h. The protocol:
(§1) A 10% emulsifiable concentrate of the compound of the present invention (depending on the type of the compound, a 10% wettable powder was subjected to the test) was diluted with water containing a spreader to prepare a drug solution in a concentration of 10 ppm. In this drug solution, a leaf of cabbage was immersed for about 10 seconds and was air-dried and then put into a petri dish. In the petri dish, five 2 instar larvae of Plutella xylostella per petri dish were released and the petri dish was capped and stored in a thermostatic room of 25° C. The number of killed larvae after 6 days was counted and the mortality was calculated from the following calculation formula: Mortality(%)=(number of killed larvae/number of released larvae)×100. Here, the test was carried out with two replications.

Another data set deals with Spodoptera litura. In words: Mortality test for Spodoptera litura. The conditions noted are these: 144 h. The class given is in vivo. The protocol: as §1, with “Spodoptera litura” for “Plutella xylostella”, “same” for “following”, “formula as that in Test Example 1.” for “formula: Mortality(%)=(number of killed larvae/number of released larvae)×100.”
A further data set deals with Liriomyza trifolii. Put plainly: Mortality test for Liriomyza trifolii. The class given is in vivo. The conditions noted are these: 144 h, drug solution 500 ppm, kidney bean leaf with eggs immersed, killed larvae after 6 days. The protocol: A 10% emulsifiable concentrate of the compound of the present invention (depending on the type of the compound, a 10% wettable powder was subjected to the test) was diluted with water containing a spreader to prepare a drug solution in a concentration of 500 ppm. In this drug solution, a leaf of kidney bean on which Liriomyza trifolii laid eggs (10 eggs/leaf) and which was cut out to a diameter of 7 cm was immersed for about 10 seconds and was air-dried and then laid on a wet filtration paper laid in a styrol cup having an inner diameter of 7 cm. The styrol cup was capped and stored in a thermostatic room of 25° C. The number of killed larvae after 6 days was counted and the mortality was calculated from the same calculation formula as that in Test Example 1. Here, the test was carried out with two replications.

A further data set has as its system Eysarcoris lewisi. In words: Mortality test for Eysarcoris lewisi. The class given is in vivo. The conditions noted are these: 48 h, drug solution 500 ppm, rice leaf sheath immersed, 1 instar larvae, after 2 days. As to the method:
(§2) A 10% emulsifiable concentrate of the compound of the present invention (depending on the type of the compound, a 10% wettable powder was subjected to the test) was diluted with water containing a spreader to prepare a drug solution in a concentration of 500 ppm. In this drug solution, a leaf sheath of rice was immersed for about 10 seconds and was air-dried and then put into a test tube. In the test tube, five 1 instar larvae of Eysarcoris lewisi per test tube were released and the test tube was capped with a sponge and stored in a thermostatic room of 25° C. The number of killed larvae after 2 days was counted and the mortality was calculated from the same calculation formula as that in Test Example 1. Here, the test was carried out with two replications.

The test system of another data set is Nilaparvata lugens. Put plainly: Mortality test for Nilaparvata lugens. Format: in vivo. The following applies: 144 h, drug solution 500 ppm, rice leaf sheath immersed, 2 instar larvae, after 6 days. The protocol: as §2, with “five 2” for “five 1”, “of Nilaparvata lugens” for “of Eysarcoris lewisi”, “after 6” for “after 2”
Another data set has as its system Aulacophora femoralis. Put plainly: Mortality test for Aulacophora femoralis. The class given is in vivo. The conditions noted are these: 144 h. As to the method: (§3) A 10% emulsifiable concentrate of the compound of the present invention (depending on the type of the compound, a 10% wettable powder was subjected to the test) was diluted with water containing a spreader to prepare a drug solution in a concentration of 500 ppm. In this drug solution, a leaf of cucumber was immersed for about 10 seconds and was air-dried and then put into a petri dish. In the petri dish, five 2 instar larvae of Aulacophora femoralis per petri dish were released and the petri dish was capped and stored in a thermostatic room of 25° C. The number of killed larvae after 6 days was counted and the mortality was calculated from the same calculation formula as that in Test Example 1. Here, the test was carried out with two replications.

The subject of a further data set is Homona magnanima. In words: Mortality test for Homona magnanima. Format: in vivo. The conditions noted are these: 144 h, drug solution 100 ppm, cabbage leaf immersed, 2 instar larvae, after 6 days. The protocol: as §3, with “100” for “500”, “cabbage” for “cucumber”, “Homona magnanima” for “Aulacophora femoralis”
The subject of the next data set is Helicoverpa armigera. Put plainly: Mortality test for Helicoverpa armigera. The class given is in vivo. The following applies: 144 h, drug solution 100 ppm, cabbage leaf immersed, 2 instar larva, after 6 days. As to the method: A 10% emulsifiable concentrate of the compound of the present invention (depending on the type of the compound, a 10% wettable powder was subjected to the test) was diluted with water containing a spreader to prepare a drug solution in a concentration of 100 ppm. In this drug solution, a leaf of cabbage was immersed for about 10 seconds and was air-dried and then put into a petri dish. In the petri dish, one 2 instar larva of Helicoverpa armigera per petri dish was released and the petri dish was capped and stored in a thermostatic room of 25° C. The number of killed larvae after 6 days was counted and the mortality was calculated from the same calculation formula as that in Test Example 1. Here, the test was carried out with 12 replications.

[1] abbreviates: drug solution 100 ppm (mark *), cabbage leaf immersed, 2 instar larvae, after 6 days, read-out: mortality.

In general, melting point refers to the temperature of the solid-liquid transition. The mortality is the share of the test organisms that died.

Read-outs that look alike come from different tables or passages of the source.

In the case of `NC(=O)c1ccc(C2=NOC(c3cc(C(F)(F)F)cc(C(F)(F)F)c3)(C(F)(F)F)C2Br)cc1` (stereo not shown), the melting point was 190 to 193 °C.

`Cc1cc(C2=NOC(c3cc(Cl)cc(Cl)c3)(C(F)(F)F)C2Cl)ccc1C(=O)NCC(F)(F)F` (stereo not shown) [1-002, 4-(4-chloro-5-(3,5-dichlorophenyl)-5-trifluoromethyl-4,5-dihydroisoxazole-3-yl)-2-methyl-N-(2,2,2-trifluoroethyl)benzoic acid amide]: the mortality at 10 ppm with Plutella xylostella (in Brassica oleracea) and in the data set with Spodoptera litura (in Brassica oleracea) was at least 80% each time.

As for `Cc1cc(C2=NOC(c3cc(Cl)cc(Cl)c3)(C(F)(F)F)C2Br)ccc1C(=O)NCC(F)(F)F` (stereo not shown) [1-003, 4-(4-bromo-5-(3,5-dichlorophenyl)-5-trifluoromethyl-4,5-dihydroisoxazole-3-yl)-2-methyl-N-(2,2,2-trifluoroethyl)benzoic acid amide], the mortality at 500 ppm in the data set with Liriomyza trifolii, in the data set with Eysarcoris lewisi, with Nilaparvata lugens and in the data set with Aulacophora femoralis (in Cucumis sativus) was at least 80% in each case. Further, the mortality at 100 ppm in the data set on Plutella xylostella (in Brassica oleracea) and with Spodoptera litura (in Brassica oleracea) was at least 80% throughout.

On to `Cc1cc(C2=NOC(c3cc(Cl)cc(Cl)c3)(C(F)(F)F)C2C)ccc1C(=O)NCC(F)(F)F` (stereo not shown) [1-004, 4-(5-(3,5-dichlorophenyl)-4-methyl-5-trifluoromethyl-4,5-dihydroisoxazole-3-yl)-2-methyl-N-(2,2,2-trifluoroethyl)benzoic acid amide], for which the mortality at 100 ppm in the data set with Homona magnanima, with Plutella xylostella (in Brassica oleracea) and in the data set on Spodoptera litura (in Brassica oleracea) was at least 80% in each case. The mortality at 500 ppm in the data set on Liriomyza trifolii, in the data set on Eysarcoris lewisi and with Aulacophora femoralis (in Cucumis sativus) was at least 80% each time.

For the compound `CSC1C(c2ccc(C(=O)NCC(F)(F)F)c(C)c2)=NOC1(c1cc(Cl)cc(Cl)c1)C(F)(F)F` (stereo not shown) [1-005, 4-(5-(3,5-dichlorophenyl)-4-methylthio-5-trifluoromethyl-4,5-dihydroisoxazole-3-yl)-2-methyl-N-(2,2,2-trifluoroethyl)benzoic acid amide], the mortality at 100 ppm with Plutella xylostella (in Brassica oleracea) and in the data set with Spodoptera litura (in Brassica oleracea) was at least 80% in each case.

Compound `CON=CNC(=O)c1ccc(C2=NOC(c3cc(C(F)(F)F)cc(C(F)(F)F)c3)(C(F)(F)F)C2Br)cc1` (stereo not shown) [1-011, 4-(4-bromo-5-(3,5-bis(trifluoromethyl)phenyl)-5-trifluoromethyl-4,5-dihydroisoxazole-3-yl)-N-(methoxyiminomethyl)benzoic acid amide] showed a mortality at 500 ppm with Nilaparvata lugens of at least 80%. The mortality at 100 ppm in the data set on Plutella xylostella (in Brassica oleracea) and in the data set on Spodoptera litura (in Brassica oleracea) was at least 80% in each case.

For `O=C(NCc1ccc(C2=NOC(c3cc(Cl)cc(Cl)c3)(C(F)(F)F)C2Br)cc1Br)C1CC1` (stereo not shown) [2-002, N-(2-bromo-4-(4-bromo-5-(3,5-dichlorophenyl)-5-trifluoromethyl-4,5-dihydroisoxazole-3-yl)phenylmethyl)cyclopropylcarboxamide], the mortality at 500 ppm with Nilaparvata lugens was at least 80%.

As for `CC1C(c2ccc(CN(C)C(=O)C3CC3)c(Br)c2)=NOC1(c1cc(Cl)cc(Cl)c1)C(F)(F)F` (stereo not shown) [2-005, N-(2-bromo-4-(5-(3,5-dichlorophenyl)-4-methyl-5-trifluoromethyl-4,5-dihydroisoxazole-3-yl)phenylmethyl)-N-(methyl)cyclopropanecarboxamide], the mortality at 500 ppm in the data set on Plutella xylostella (in Brassica oleracea) and in the data set on Spodoptera litura (in Brassica oleracea) was at least 80% each time.

`CSc1ccc(C2=NOC(c3cc(Cl)cc(Cl)c3)(C(F)(F)F)C2Br)cc1` (stereo not shown) [4-002, 4-bromo-5-(3,5-dichlorophenyl)-3-(4-(methylthio)phenyl)-5-trifluoromethyl-4,5-dihydroisoxazole] came in with a mortality at 500 ppm in the data set with Nilaparvata lugens of at least 80%. The mortality at 100 ppm in the data set with Helicoverpa armigera, in the data set on Plutella xylostella (in Brassica oleracea) and in the data set with Spodoptera litura (in Brassica oleracea) was at least 80% in each case.

`Cc1cc(C(/C=C(/c2cc(Cl)cc(Cl)c2)C(F)(F)F)=NO)ccc1C(=O)NCC(F)(F)F` [5-001, 4-((2Z)-3-(3,5-dichlorophenyl)-4,4,4-trifluoro-1-(hydroxyimino)-2-butenyl)-2-methyl-N-(2,2,2-trifluoroethyl)benzoic acid amide]: the mortality at 100 ppm in the data set with Plutella xylostella (setting [1]) and with Spodoptera litura (setting [1]) was at least 80% each time.

For the compound `Cc1cc(C(/C=C(\c2cc(Cl)cc(Cl)c2)C(F)(F)F)=NO)ccc1C(=O)NCC(F)(F)F` [6-001, 4-((2E)-3-(3,5-dichlorophenyl)-4,4,4-trifluoro-1-(hydroxyimino)-2-butenyl)-2-methyl-N-(2,2,2-trifluoroethyl)benzoic acid amide], the mortality at 500 ppm with Plutella xylostella (drug solution 500 ppm (mark **), cabbage leaf immersed, 2 instar larvae, after 6 days, read-out: mortality) was at least 80%; with Aulacophora femoralis (drug solution 500 ppm, cucumber leaf immersed, 2 instar larvae, after 6 days, read-out: mortality), at least 80%.
